Results from paper PMC10734441, “Comparative biodegradation analysis of three compostable polyesters by a marine microbial community” (Applied and Environmental Microbiology, 2023).

Legend:
Assay in all cases: 4-nitrophenol release, absorbance at […] nm, nonlinear regression
Format in all cases: biochemical, Pseudomonas sp. (bin 31)
Conditions in all cases: phosphate-buffered saline pH 7.4; 20°C (methods: room temperature); 0.1-2.4 mM substrate
Ple-tan1 = tested on: T1, Ple-tan1
T1 construct: codon-optimized synthetic gene in pCold II, E. coli Origami (DE3), His-tag purified plus size exclusion

Ple-tan2 = tested on: T2, Ple-tan2
T2 construct: codon-optimized synthetic gene in pCold II, E. coli Origami (DE3), His-tag purified

Ple-solo = tested on: T3, Ple-solo
T3 construct: codon-optimized synthetic gene in pCold II, E. coli Origami (DE3), His-tag purified plus size exclusion

Km (Ple-tan1): 454 ± 54 µM
Km (Ple-tan2): 1420 ± 94 µM
Km (Ple-solo): 254 ± 55 µM
SMILES: CCCC(=O)Oc1ccc([N+](=O)[O-])cc1 [para-nitrophenyl butyrate]
